{
  "source": "patent US5312831A",
  "about": "“Urethanes and ureas that induce cytokine production” (American Cyanamid Company, priority 1993, dated 1994)",
  "key": {"CSF [1]": {"tested_on": "CSF", "details": "literature; cited from earlier work"}, "bone marrow": {"tested_on": "bone marrow", "details": "myelosuppression caused by chemotherapy or radiation; literature; cited from earlier work"}, "[2]": {"tested_on": "bone marrow progenitor cells", "assay": "Delta assay: expansion of bone marrow progenitor cells in vitro, with c-kit ligand (KL)", "type": "cell-based, mouse", "details": "KL alone, 7 day in vitro incubation; medium alone 0", "procedure": "Delta Assay--Mice are treated with a single dose of 5-FU (150 mg/kg ip). Twenty-four hours later, bone marrow cells are removed and split into 2 aliquots. […] After 14 days, the number of colonies is determined (CFU-1). A second aliquot of cells is placed in liquid culture with single growth factors or drugs or combinations of each to assess the ability of these agents to expand the colony forming cell pool. After 7 days in liquid culture, these cells are harvested and plated in soft agar with IL-1 and GM-CSF as with the first aliquot. After 14 days the number of colonies in the second aliquot is determined (CFU-2). The ratio or delta is calculated as CFU-2/CFU-1 and this ratio is used to ascertain the ability of the growth factors and/or drugs used in the liquid phase to induce growth of the colony forming cells (CFU) or differentiation of pre-CFU to CFU.\nBone marrow cells from 5-FU treated mice are used to enrich for early progenitor cells. The cells are split into 2 aliquots as described in the methods section for the \"delta assay.\" The fold increase is determined by measuring the effect of a 7 day in vitro incubation of the cells with tissue culture medium plus test compound and/or growth factor KL on colony forming dells (CFU). The number of CFUs are then compared with colony formation of the fresh bone marrow cells that were not incubated in vitro to determine the fold increase. Test compound is used in vitro at 0.5 μg/ml."}, "neutrophils [3]": {"tested_on": "neutrophils", "assay": "Oral dosing: neutrophil recovery in 5-FU treated mice", "type": "in vivo, mouse", "details": "for Neutrophils/cu. mm.: day 7 post 5FU, 0 dose 67 ± 22", "method": "(§1) Circulating Neutrophil Assay--Mice are treated with 5-FU (150 mg/kg) and beginning 24 hrs. later, treated daily with the test compound. Mice are bled daily by retroorbital puncture in heparinized capillary tubes. Circulating WBC counts are determined by Coulter counter. Blood smears are stained with Wright-Geimsa solution and the percentage circulating neutrophils determined by differential counting under a microscope.\n(§2) 5-Fluorouracil (5-FU) Induced Neutropenia In Mice--Mice are treated ip with 150 mg/kg of the chemotherapy agent 5-FU which induces a severe loss of neutrophils in the peripheral blood 5-6 days later. Twenty-four hrs. after the dose, treatment with the test compounds is initiated. The effect of the test compounds on recovery of neutrophil progenitor cells in the bone marrow is determined by the CFU-GM assay. The recovery of circulating neutrophils is followed by differential staining of the peripheral blood.\nGroups of 5 mice are treated with 150 mg/kg of 5-FU. One day later, daily oral dosing with test compounds begins and continues for 10 days. […]"}, "neutrophils [4]": {"tested_on": "neutrophils", "assay": "Neutrophil recovery in cytoxan treated primates", "type": "in vivo, cynomolgous monkeys", "details": "for Absolute Neutrophil Count/cu. mm. of Blood: Cytoxan + Ex. 32 (50 μg/kg daily s.c.)", "method": "Groups of 4 cynomolgous monkeys are treated on day 1 and day 0 with\ncytoxan at 60 mg/kg. Beginning 24 hours after the second cytoxan dose, on\ngroup is treated daily s.c. with 50 μg/kg of test compound and the\nother with vehicle (water) only.\n*p < 0.05 versus cytoxan only control by Student's t test."}, "neutrophils [5]": {"tested_on": "neutrophils", "assay": "Neutrophil recovery in 5-FU treated mice", "type": "in vivo, mouse", "details": "day 8 post 5FU, 0 dose 144 ± 36"}, "CSF [6]": {"tested_on": "CSF", "assay": "Serum colony stimulating factor (CSF) assay in mice", "type": "in vivo, mouse", "details": "serum 4 hours after injection", "method": "Colony forming assays Granulocyte-Macrophage (CFU-GM)--Mice are treated with 150 mg/kg of 5-Fu and treatment with test compound begins 24 hrs. later. On consecutive days, mice are killed by cervical dislocation and the femurs removed under sterile conditions. Femurs are flushed with 1 ml of ice cold medium (Iscove's supplemented with 20% FCS, 1% penicillin-streptomycin, 1% glutamine and 5×10^-5 M 2-mercaptoethanol). Bone marrow cells (5×10^5) are then plated in 12×75 mm tissue culture plates in 3 ml of warm ararose (3%) in Iscove's medium with 100 Units/ml of recombinant mouse GM-CSF purchased from Genzyme (Boston, Mass.). Plates are incubated for 7 days at 37° C. in 5% CO2. After 7 days, colonies of 50 cells or greater are enumerated under a dissecting microscope.\nBone marrow cells are prepared as described above for the CFU-GM assay. The cells are then incubated in soft agar with an 0.3% final concentration of serum taken from mice 4 hours after injection with test compounds. After 7 days of incubation at 37° C., the number of colony forming (CFU) cells per 10^5 plated bone marrow cells is determined by counting colonies of more than 50 cells under a dissecting microscope. The data are reported as CFU/10^5 bone marrow cells."}, "IL-6": {"tested_on": "IL-6", "assay": "Serum IL-6 production in mice after single s.c. injection (7TD1 bioassay)", "type": "in vivo, mouse", "details": "serum 4 h post injection", "method": "Description of Biological Assays Interleukin 6(IL-6) assay for structure function analysis--Test compounds are dissolved in water and administered subcutaneously in 0.2 ml to deliver a dose of 0.1-10 mg/kg. The less soluble compounds are first dissolved in 100% ethanol and then brought to the appropriate concentration in water. Four hours post injection, the mice are bled and the serum is retrieved. The IL-6 dependent cell line 7TDl is used to assay serial dilutions of sera for IL-6 content. 7TDl cells (1×10^4) are placed in microtiter wells and incubated at 37° C. for 72 hours with standard recombinant mouse IL-6 or with dilutions of serum to be tested. Over the last 6 hours, the cells are pulsed with ^3 H-Tdr (μci). Cells are then harvested and the degree of proliferation determined by the uptake of ^3 H-Tdr as measured by liquid scintillation spectrometry. The concentration of IL-6 in serum is calculated from standard curves utilizing recombinant IL-6 from R&D Systems Inc. and are reported in units of IL-6 activity as defined by the manufacturer."}, "neutrophils [7]": {"tested_on": "neutrophils", "assay": "Neutrophil recovery in 5-FU treated mice", "type": "in vivo, mouse", "details": "mouse, in vivo", "method": "as §1, §2\n*Data from 10 mice/group on day 7 post treatment with 150 mg/kg of 5FU.\nBeginning 24 hrs. after 5FU dose, mice were treated daily with test\ncompound at concentrations indicated. Neutrophil count for normal mice (n\n**Mice treated with 5FU and vehicle only."}},
  "data": [
    {"molecule": "muroctasin", "values": [
      {"measurement": "formation of CSF (in words)", "setting": "CSF [1]", "value": "appear to induce the formation of CSF"},
      {"measurement": "bone marrow restoration after myelosuppression (in words)", "setting": "bone marrow", "value": "can aid in bone marrow restoration"}
    ]},
    {"molecule": "KL: hemopoietic growth factor c-kit ligand (KL)", "values": [
      {"measurement": "Fold Increase in CFU", "setting": "[2]", "value": 66, "unit": "fold"}
    ]},
    {"molecule": "CCCCCCC(=O)N[C@H](COC(=O)N[C@@H](CCC[C@@H](N)C(=O)O)C(=O)N[C@H](C)C(=O)O)C(=O)O", "note": "[Example 32, (R)-N-[(R)-6-carboxy-N^2-[[2-carboxy-2-[(1-oxoheptyl)amino]ethoxy]carbonyl]-L-lysyl]-D-Alanine]", "values": [
      {"measurement": "Neutrophils/cu. mm.", "setting": "neutrophils [3]; 1 mg/kg daily oral", "value": "547 ± 232 /cu. mm"},
      {"measurement": "Neutrophils/cu. mm.", "setting": "neutrophils [3]; 10 mg/kg daily oral", "value": "1844 ± 814 /cu. mm"},
      {"measurement": "neutrophil recovery in 5-FU treated mice when given orally (in words)", "setting": "neutrophils [3]; oral", "value": "active in accelerating neutrophil recovery"},
      {"measurement": "Absolute Neutrophil Count/cu. mm. of Blood", "setting": "neutrophils [4]; day 0 after cytoxan, cytoxan only 3640 ± 1058", "value": "3554 ± 1194 /cu. mm. of Blood"},
      {"measurement": "Absolute Neutrophil Count/cu. mm. of Blood", "setting": "neutrophils [4]; day 1 after cytoxan, cytoxan only 4900 ± 971", "value": "7849 ± 1592 /cu. mm. of Blood"},
      {"measurement": "Absolute Neutrophil Count/cu. mm. of Blood", "setting": "neutrophils [4]; day 2 after cytoxan, cytoxan only 2689 ± 156", "value": "4679 ± 867 /cu. mm. of Blood"},
      {"measurement": "Absolute Neutrophil Count/cu. mm. of Blood", "setting": "neutrophils [4]; day 3 after cytoxan, cytoxan only 1935 ± 126", "value": "1080 ± 264 /cu. mm. of Blood"},
      {"measurement": "Absolute Neutrophil Count/cu. mm. of Blood", "setting": "neutrophils [4]; day 4 after cytoxan, cytoxan only 1442 ± 344", "value": "370 ± 171 /cu. mm. of Blood"},
      {"measurement": "Absolute Neutrophil Count/cu. mm. of Blood", "setting": "neutrophils [4]; day 5 after cytoxan, cytoxan only 856 ± 295", "value": "455 ± 208 /cu. mm. of Blood"},
      {"measurement": "Absolute Neutrophil Count/cu. mm. of Blood", "setting": "neutrophils [4]; day 6 after cytoxan, cytoxan only 1009 ± 292", "value": "518 ± 218 /cu. mm. of Blood"},
      {"measurement": "Absolute Neutrophil Count/cu. mm. of Blood", "setting": "neutrophils [4]; day 7 after cytoxan, cytoxan only 852 ± 301", "value": "1304 ± 1046 /cu. mm. of Blood"},
      {"measurement": "Absolute Neutrophil Count/cu. mm. of Blood", "setting": "neutrophils [4]; day 8 after cytoxan, cytoxan only 542 ± 233", "value": "1596 ± 1000 /cu. mm. of Blood"},
      {"measurement": "Absolute Neutrophil Count/cu. mm. of Blood", "setting": "neutrophils [4]; day 9 after cytoxan, *p < 0.05 versus cytoxan only 441 ± 194", "value": "2041 ± 423 /cu. mm. of Blood"},
      {"measurement": "Absolute Neutrophil Count/cu. mm. of Blood", "setting": "neutrophils [4]; day 10 after cytoxan, cytoxan only 1244 ± 509", "value": "3506 ± 1130 /cu. mm. of Blood"},
      {"measurement": "Absolute Neutrophil Count/cu. mm. of Blood", "setting": "neutrophils [4]; day 11 after cytoxan, cytoxan only 2053 ± 1002", "value": "4576 ± 673 /cu. mm. of Blood"},
      {"measurement": "Absolute Neutrophil Count/cu. mm. of Blood", "setting": "neutrophils [4]; day 12 after cytoxan, cytoxan only 1885 ± 678", "value": "3761 ± 1394 /cu. mm. of Blood"},
      {"measurement": "Absolute Neutrophil Count/cu. mm. of Blood", "setting": "neutrophils [4]; day 13 after cytoxan, cytoxan only 3502 ± 2297", "value": "3751 ± 1278 /cu. mm. of Blood"},
      {"measurement": "Absolute Neutrophil Count/cu. mm. of Blood", "setting": "neutrophils [4]; day 14 after cytoxan, cytoxan only 3816 ± 1674", "value": "3106 ± 520 /cu. mm. of Blood"},
      {"measurement": "recovery of neutrophils in cytoxan treated primates (in words)", "setting": "neutrophils [4]; monkey, in vivo", "value": "accelerates the recovery of neutrophils"},
      {"measurement": "recovery to control levels", "setting": "neutrophils [4]; versus a day 10 recovery for the cytoxan only group", "value": "≤ 7", "unit": "days"},
      {"measurement": "Neutrophils/cu. mm.", "setting": "neutrophils [5]; 100 μg/kg daily", "value": "982 ± 150 /cu. mm."},
      {"measurement": "Neutrophils/cu. mm.", "setting": "neutrophils [5]; 1000 μg/kg daily", "value": "1892 ± 293 /cu. mm."},
      {"measurement": "CSF production, CFU/100,000 Bone Marrow Cells", "setting": "CSF [6]; 0.1 mg/kg", "value": "154 ± 5 CFU/100,000 Bone Marrow Cells"},
      {"measurement": "CSF production, CFU/100,000 Bone Marrow Cells", "setting": "CSF [6]; 1.0 mg/kg", "value": "137 ± 15 CFU/100,000 Bone Marrow Cells"},
      {"measurement": "IL-6", "setting": "IL-6; 0.1 mg/kg s.c.", "value": "1340 ± 134", "unit": "U/ml"},
      {"measurement": "IL-6", "setting": "IL-6; 1.0 mg/kg s.c.", "value": "1797 ± 284", "unit": "U/ml"},
      {"measurement": "neutrophil recovery in 5-FU treated mice (in words)", "setting": "neutrophils [7]", "value": "induce neutrophil recovery in 5-FU treated mice"}
    ]},
    {"molecule": "pimelautide", "values": [
      {"measurement": "formation of CSF (in words)", "setting": "CSF [1]", "value": "appear to induce the formation of CSF"},
      {"measurement": "bone marrow restoration after myelosuppression (in words)", "setting": "bone marrow", "value": "can aid in bone marrow restoration"}
    ]}
  ]
}
